Legend:
[1] = biological target: FaRRP1–FaPYL2 protein complexes; test: ITC binding of ABA to FaRRP1–FaPYL2 complex; set-up: species or system Fragaria × ananassa; conditions: 0.4 mM S-(+)-ABA titrated into 20 μM complex, pH 7.4, 25 °C, endothermic
Procedure: (§1) Whether FaRRP1 affects the binding activity of FaPYL2 and FaABAR to ABA is unclear. For this, FaRRP1-His/MBP, FaPYL2-His, and FaABAR-His were purified and dialyzed into the same buffer (ITC Buffer) (20 mM Na2HPO4, 20 mM NaH2PO4, 300 mM NaCl, 20 mM MgCl2 pH 7.4). Then, the molar concentrations of FaRRP1-FaPYL2 and FaRRP1-FaABAR complexes were mixed into the same ratio and placed at 4 °C for 30 min. Finally, 1-fold protein peptide and 20-fold S- (+)-ABA were used for ITC assays (Fig. 5, D and H).
(§2) The purified protein was concentrated using an Amicon Ultra-4 centrifugal 3-kDa filter (Millipore) at 3000g for 20 min in a swing bucket rotor (Sigma). The protein was then desalted for buffer exchange using a HiTrap desalting column (GE Healthcare). The HiTrap desalting column was filled with ITC buffer (20 mM Na2HPO4, 20 mM NaH2PO4, 300 mM NaCl, 20 mM MgCl2, pH 7.4) to remove ethanol completely and equilibrate the column. The final concentration of the FaRRP1-His/MBP, FaPYL2-His, and FaABAR-His fusion protein was adjusted to 20 μM. The binding reaction between fusion protein to ABA was detected by ITC. To ensure the univariate of the experiment, an ITC buffer was used to prepare an ABA solution with 20 times protein concentration to ensure the matching of buffer environment between the two. The ITC analysis used 20-μM fusion protein and 400-μM ABA in an ITC200 calorimeter (MicroCal). […]

[2] = test system: FaRRP1-mediated endocytosis in root cells; test: Endocytosis experiment under ABA treatment (FM4-64 staining of root cells); type: cell-based, Arabidopsis; conditions: 0.1 μM ABA 48 h, 10-days-old seedlings, 5 μM FM4-64 10 min; FaRRP1-OE line compared with WT
Procedure: The 10-days-old FaRRP1 OE and WT Arabidopsis seedlings growing under the normal condition were collected and soaked into the equilibrium solution [1/2 MS salt (pH=5.70), 1% sugar (w/v)] for 30 min. Then, the seedlings were treated with 0.1 μM ABA. After 48 h later, these seedlings were stained with 5 μM FM4-64 (Invitrogen) dye for 10 min, washed with equilibrium solution for 3 times, and root cells were observed under a confocal laser scanning microscope (Zeiss LSM 710 META). The experiment was repeated three times.

[3] = biological target: FaRRP1–FaABAR protein complexes (Fragaria x ananassa, UniProt C6KF71+K9LRD7); test: ITC binding of ABA to FaRRP1–FaABAR complex; conditions: 0.4 mM S-(+)-ABA titrated into 20 μM complex, pH 7.4, 25 °C, exothermic
Procedure: as §1, §2

[4] = biological target: FaRRP1-His/MBP fusion protein (Fragaria × ananassa, UniProt K9LRD7); test: ITC binding of ABA to FaRRP1
Text: (§3) The expression and purification of the recombinant proteins FaRRP1, FaPYL2, and FaABAR were done by a prokaryotic (E. coli) expression system. The cDNA encoding the FaRRP1, FaPYL2, and FaABAR was synthesized using the aforementioned method by PCR amplification using the primers listed in Table S1. The recombinant plasmids of pET-28a-FaPYL2-His, pMAL-C5X-FaRRP1-His/MBP, pGEX4T-1-FaRRP1-GST, pET-28a-FaABAR-His were constructed. After positive recombinants were identified by double-digesting and sequencing, the E. coli strain BL21 (DE3) cells with the recombinant plasmid were grown in 500 ml LB medium containing different antibiotics at 37 °C. On A600 at 0.6 to 0.7, 0.5 mM IPTG was added to inducibly express the fusion proteins overnight at 16 °C for 12 h. The cultures were harvested and suspended with 20 ml binding buffer (20 mM Na2HPO4, 20 mM NaH2PO4, 300 mM NaCl, 20 mM MgCl2, 10 mM imidazole, pH 7.4), then lysed by sonication in a Misonix Sonifier at 4 °C; finally, the supernatants were loaded onto BeaverBeads IDA- Ni^2+ (Beaver) columns and mixed gently by shaking at 4 °C for 60 min. […]
(§4) The purified protein was concentrated using an Amicon Ultra-4 centrifugal 3-kDa filter (Millipore) at 3000g for 20 min in a swing bucket rotor (Sigma). […] The binding reaction between fusion protein to ABA was detected by ITC. […]

[5] = biological target: T1, FaABAR-His fusion protein (Fragaria × ananassa, UniProt C6KF71); test: ITC binding of ABA to FaABAR
T1 sequence (C6KF71 1-1381): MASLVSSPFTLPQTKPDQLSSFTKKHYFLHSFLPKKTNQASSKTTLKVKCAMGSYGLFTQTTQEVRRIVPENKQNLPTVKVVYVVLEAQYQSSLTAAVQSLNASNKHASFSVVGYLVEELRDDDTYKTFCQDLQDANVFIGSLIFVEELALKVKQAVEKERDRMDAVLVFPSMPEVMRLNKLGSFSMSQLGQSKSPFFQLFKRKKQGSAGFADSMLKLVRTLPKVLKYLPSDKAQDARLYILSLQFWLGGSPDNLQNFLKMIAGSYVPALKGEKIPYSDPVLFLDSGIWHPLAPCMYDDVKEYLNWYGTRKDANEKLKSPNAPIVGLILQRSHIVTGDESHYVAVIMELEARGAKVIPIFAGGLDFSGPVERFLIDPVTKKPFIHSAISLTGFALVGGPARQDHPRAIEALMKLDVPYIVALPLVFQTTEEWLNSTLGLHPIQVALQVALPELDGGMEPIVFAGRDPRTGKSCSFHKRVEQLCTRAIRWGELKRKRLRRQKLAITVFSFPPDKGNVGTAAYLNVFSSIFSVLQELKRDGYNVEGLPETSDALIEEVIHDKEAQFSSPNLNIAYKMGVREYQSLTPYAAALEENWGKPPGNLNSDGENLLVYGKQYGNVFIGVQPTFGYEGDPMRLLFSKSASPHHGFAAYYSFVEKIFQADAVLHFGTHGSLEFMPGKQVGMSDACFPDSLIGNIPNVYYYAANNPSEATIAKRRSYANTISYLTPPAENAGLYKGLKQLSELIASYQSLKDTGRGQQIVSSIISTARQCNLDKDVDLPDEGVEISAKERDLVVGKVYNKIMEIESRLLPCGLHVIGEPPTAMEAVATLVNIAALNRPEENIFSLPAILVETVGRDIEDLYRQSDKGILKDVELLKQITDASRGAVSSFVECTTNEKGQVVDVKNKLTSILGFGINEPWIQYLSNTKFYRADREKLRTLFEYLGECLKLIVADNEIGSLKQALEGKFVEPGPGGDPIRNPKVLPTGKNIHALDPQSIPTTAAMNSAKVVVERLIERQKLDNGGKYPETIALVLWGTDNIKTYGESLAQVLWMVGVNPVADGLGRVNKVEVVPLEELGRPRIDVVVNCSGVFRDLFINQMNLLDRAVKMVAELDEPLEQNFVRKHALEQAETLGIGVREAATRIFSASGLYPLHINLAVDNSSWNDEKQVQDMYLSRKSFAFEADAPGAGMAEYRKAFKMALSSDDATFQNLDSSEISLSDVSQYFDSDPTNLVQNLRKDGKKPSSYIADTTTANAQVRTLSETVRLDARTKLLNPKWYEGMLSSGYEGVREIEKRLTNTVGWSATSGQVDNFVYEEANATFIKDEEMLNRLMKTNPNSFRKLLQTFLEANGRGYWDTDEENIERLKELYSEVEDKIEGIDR
Text: as §3, §4

[6] = biological target: FaPYL2-His fusion protein; test: ITC binding of ABA to FaPYL2; set-up: species or system Fragaria × ananassa; conditions: 0.4 mM S-(+)-ABA titrated into 20 μM protein, pH 7.4, 25 °C, endothermic, saturation curve
Text: as §3, §4

[7] = test system: clathrin-mediated vesicle transport genes; test: RT-qPCR of clathrin-mediated vesicle transport genes in ABA-incubated fruit discs; type: cell-based, Fragaria × ananassa; conditions: 100 μM ABA, white-stage fruit discs, vs control
Procedure: In vitro treatments were performed on fruits in the white stage using 100 μM ABA, and ABA-free buffer incubation was used as the control. The incubation was done as described by Song et al. ([77]). After a 2-h incubation followed by washing with double-distilled water, the discs were frozen in liquid nitrogen and kept at −80 °C until use. Samples are collected once at 0 h, 1 h, and 2 h. The experiment was performed with three replicates.
Total RNA was isolated from the fruit using the aforementioned method. The first-strand cDNA was used as the template for RT-qPCR, which was performed using the Trans Start Top UreenqPCR Super Mix Kit (TransGen Biotech) on the Light Cycler 96 real-time PCR system, with cDNA under different treatments as the template and strawberry Actin as the internal reference gene. The reaction procedures were as follows: predenaturation at 94 °C for 30 s, followed by 40 cycles of denaturation at 94 °C for 5 s, annealing at 60 °C for 15 s, and extension at 72 °C for 10 s. The experiment was duplicated three times independently. The Actin of the standard sample and the cDNA of the sample to be tested were repeated three times. Relative expression values were calculated by the 2^−ΔΔCt method, and SPSS22.0 software (https://www.spss.com) was used to analyze the experimental data.

[8] = biological target: FaRRP1-His/MBP recombinant fusion protein (strawberry ripening-regulated protein 1) (Fragaria x ananassa (strawberry)); test: ITC; 200 uM FaPYL2 dropped into 20 uM FaRRP1; ITC200 (MicroCal), 25 C; ITC buffer 20 mM Na2HPO4, 20 mM NaH2PO4, 300 mM NaCl, 20 mM MgCl2, pH 7.4; 20 injections
[9] = biological target: FaABAR-His recombinant fusion protein (magnesium chelatase H subunit) (Fragaria x ananassa (strawberry)); test: ITC; 200 uM FaRRP1 dropped into 20 uM FaABAR; ITC200 (MicroCal), 25 C; ITC buffer 20 mM Na2HPO4, 20 mM NaH2PO4, 300 mM NaCl, 20 mM MgCl2, pH 7.4; 20 injections
[10] = 2 h, decreased in contrast to 1 h treatment

Chain of FaRRP1-His/MBP fusion protein (K9LRD7 1-566): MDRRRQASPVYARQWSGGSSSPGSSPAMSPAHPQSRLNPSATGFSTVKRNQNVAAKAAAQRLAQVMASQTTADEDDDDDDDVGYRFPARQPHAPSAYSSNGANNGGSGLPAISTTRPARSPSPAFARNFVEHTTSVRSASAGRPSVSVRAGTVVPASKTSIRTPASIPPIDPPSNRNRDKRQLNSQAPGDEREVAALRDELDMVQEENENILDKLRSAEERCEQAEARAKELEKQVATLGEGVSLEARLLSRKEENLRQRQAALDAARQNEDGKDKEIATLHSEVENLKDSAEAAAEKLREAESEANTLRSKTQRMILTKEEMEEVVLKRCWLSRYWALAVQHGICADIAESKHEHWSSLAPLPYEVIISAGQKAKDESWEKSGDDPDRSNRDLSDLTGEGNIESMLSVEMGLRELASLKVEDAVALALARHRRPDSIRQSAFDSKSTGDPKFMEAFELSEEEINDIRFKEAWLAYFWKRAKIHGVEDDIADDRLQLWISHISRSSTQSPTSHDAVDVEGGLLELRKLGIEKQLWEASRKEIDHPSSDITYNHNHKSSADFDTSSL
Chain of FaRRP1-His/MBP recombinant fusion protein (strawberry ripening-regulated protein 1) (Fragaria x ananassa (strawberry)) (K9LRD7 entry or part of it): as the sequence (K9LRD7 1-566) above
Chain of FaRRP1–FaABAR protein complexes (K9LRD7 1-566, one chain of several): as the sequence (K9LRD7 1-566) above

In the case of `CC1=CC(=O)CC(C)(C)[C@@]1(O)/C=C/C(C)=C\C(=O)O` [ABA, Abscisic acid], the Kd [1] is reported as 30.6 µM, the “degree of PM internalization (FM4-64–labeled fluorescent signal)” value [2] is reported as “promote the degree of PM internalization” and the Kd [3] is reported as 87.7 µM. For the same molecule, the “N (stoichiometry) ABA-FaRRP1” value ([4]; ITC fit, 0.4 mM ABA into 20 μM FaRRP1) was 0.41 Sites, the Kd ([4]; ITC, 0.4 mM S-(+)-ABA titrated into 20 μM protein, pH 7.4, 25 °C, exothermic, saturation curve) was 140 µM and the “N (stoichiometry) ABA-FaABAR” value ([5]; ITC fit, 0.4 mM ABA into 20 μM FaABAR) was 8.60 Sites. The Kd ([5]; ITC, 0.4 mM S-(+)-ABA titrated into 20 μM protein, pH 7.4, 25 °C, endothermic, could not reach saturation curve) was 258 µM, the Kd [6] was 102 µM and the “expression of FaAP1” value ([7]; 1 h) was “significantly increased”. The “expression of FaAP2” value ([7]; 1 h) was “significantly increased”, the “expression of FaCHC1” value ([7]; 1 h) was “not changed” and the “expression of FaCHC2” value ([7]; 1 h) was “significantly increased”. The “expression of FaCLC1” value ([7]; 1 h) was “significantly increased”, the “expression of FaCLC2” value ([7]; 1 h) was “decreased considerably” and the “expression of FaSCD1” value ([7]; 1 h) was “significantly increased”. For the same molecule, the “expression of FaSCD2” value ([7]; 1 h) was “significantly increased”, the “expression of FaAP1” value ([7]; 2 h) was “significantly decreased” and the “expression of FaCHC1” value ([7]; 2 h) was “quite upregulated”. For the same molecule, the “expression of FaCHC2” value ([7]; 2 h) was “significantly decreased”, the “expression of FaCLC2” value ([7]; 2 h) was “quite upregulated” and the “expression of FaSCD1” value ([7]; 2 h) was “significantly decreased”. For the same molecule, the “expression of FaAP2” value [7, 10] was “significantly increased” and the “expression of FaSCD2” value [7, 10] was “significantly increased”.

“FaPYL2-His recombinant fusion protein (natural protein)” showed a Kd [8] of 75.6 µM.

“FaRRP1-His/MBP recombinant fusion protein (strawberry ripening-regulated protein 1) (natural protein)” was tested, and the Kd [9] was 168 µM.
